US4457864A, “Synthetic analogues of α-melanotropin” (University Patents, Inc., priority 1981, dated 1984)
Entries after “also recorded” stand apart in the source; their conditions may differ. Like-named read-outs stand apart in the source and are kept apart here.

Tests used:
[1] = literature reports, cited from earlier work
amphibian melanophores = conditions: Sawyer et al.; cited from earlier work
[2] = system: adenylate cyclase in Cloudman S-91 mouse melanoma tumors; conditions: Sawyer et al.; cited from earlier work
[3] = cited from earlier work
frog (Rana pipiens) = experiment: in vivo skin darkening (reflectance) in frogs after a single subcutaneous injection
Description: (§1) [Nle^4, D-Phe^7 ]-α-MSH was examined for its biological effects on melanosome dispersion in vivo, using the frog (Rana pipiens), and the lizard (Anolis carolinensis). See, Hadley, et al. Science, 213, pp. 1025-1027 (1981).
Frogs of both sexes were placed in white plastic containers with a small amount of water under overhead illumi-nation. Under these conditions, the animals became light green in color, presumably because they were not releasing any endogenous α-MSH. Forty-eight hours later, light reflectance from the dorsal surface of the animals was measured with a Photovolt reflectometer. At this time, the frogs were injected subcutaneously with Ringer solution (controls) or Ringer solutions containing α-MSH, [Nle^4 ]-α-MSH, or [Nle^4, D-Phe^7 ]-α-MSH (100 μl of a 10^-4 M solution per 10 g of body weight) to provide a final body concentration of approximately 18 μg/10 g. Subsequent reflectance values were taken at 2- to 3-day intervals for 6 weeks.

[4] = resistance to serum proteolytic enzyme degradation, residual activity by in vitro frog skin bioassay; type: in vitro ADME; conditions: 10 nM peptide, 37° C., Ham's F-10 with 10% horse serum and 2% fetal calf serum, up to 72 hours; FIG. 3
Procedure: Synthetic α-MSH, [Nle^4 ]-α-MSH and [Nle^4, D-Phe^7 ]-α-MSH were incubated (37° C.) under sterile conditions in Corning flasks containing Ham's F-10 media containing 10% horse serum and 2% fetal calf serum. Samples of the media containing the peptides (10 nM) were removed at time zero and at 24, 48 and 72 hours. The samples were immediately frozen and assayed for biological activity using the in vitro frog skin bioassay.

[5] = system: lizard (Anolis carolinensis); experiment: in vivo skin darkening in lizards after a single injection; conditions: 18 μg/10 g final body concentration
Description: as §1

[6] = system: adenylate cyclase in Cloudman S-91 mouse melanoma tumors; experiment: retention of adenylate cyclase activity after iodination; type: biochemical; conditions: iodinated through use of lacto peroxidase or iodogen
Procedure: (§2) The relative effects of α-MSH, [Nle^4 ]-α-MSH and [Nle^4, D-Phe^7 ]-α-MSH on mammalian melanoma adenylate cyclase activity in vitro were determined by assaying [^α-32 P] ATP conversion to [^32 P]cAMP in Cloudman S-91 mouse melanoma tumors as described in Sawyer, et al., supra. [^32 P]cAMP was isolated, purified and dectected according to Salomon et al., Anal. Biochem., 58, pp. 541-48 (1974).
The procedures of Hunter, et al., Nature, 194, pp. 495-496 (1962) were applied to [Nle^4, D-Phe^7 ]-α-MSH and the resultant compound was tested for adenylate cyclase activity as in Example 2.

[7] = system: adenylate cyclase in Cloudman S-91 mouse melanoma tumors; experiment: melanoma adenylate cyclase activity in vitro ([α-32P]ATP conversion to [32P]cAMP); type: biochemical
Procedure: as §2

[8] = system: Cloudman S-91 NCTC 3960 (CCL 53.1) melanoma cells; experiment: tyrosinase activity of melanoma cells in tissue culture (3H2O release from [3H]tyrosine); type: cell-based, mouse; conditions: 0.1 μM melanotropin, exposure 0.5, 4 and 8 hr, then 24 hr with [3H]tyrosine; FIG. 2
Procedure: Cloudman S-91 NCTC 3960 (CCL 53.1) melanoma cells were obtained from the American Type Culture Collection Cell Repository and were grown and maintained as described in Fuller, et. al. Pigment Cell, 4 pp. 97-104 (1979). Melanoma cells (2×10^5) were seeded in 25 cm^2 flasks and allowed to attach overnight. At time t=0, the medium in all the flasks was replaced with 4 ml of medium containing 0.1 μM melanotropin (i.e., α-MSH, [Nle^4 ]-α-MSH, or [Nle^4, D-Phe^7 ]-α-MSH) or a control medium containing no melanotropin. At selected time intervals (t=0.5, 4, and 8 hr.) the control medium and melanotropin-containing medium was removed. The cells were carefully rinsed three times with fresh melanotropin-free medium and then exposed to fresh melanotropinfree medium containing [^3 H]-tyrosine (specific activity 48 Ci/mmol; 1 Ci=3.7×10^10 becquerels) at 1 μCi/ml. After 24 hr, this medium was removed and the tyrosinase activity of the melanoma cells was determined by assaying for the ^3 H2 O released from the [^3 H]tyrosine by the action of tyrosinase.
Tyrosinase activities are expressed as percent activity of control cells (i.e., cells not exposed to melanotropin). Each bar represents the mean of four determinations ±SEM.

[9] = system: frog (Rana pipiens) skin melanophores; experiment: in vitro frog skin bioassay, duration of melanosome dispersion; type: cell-based
Procedure: Variation in biological effects of α-MSH analogues are generally discussed in terms of "potentiation" (increased activity relative to naturally-occurring α-MSH) and "prolongation". Such effects are measured by the classic frog skin bioassay system. See, Shizume, et al., Endocrinology, 54, 553-560 (1954). Because α-MSH has an extremely short half-life in serum (about 2 minutes), synthetic analogues having greater serum stability in addition to greater potency and prolongation characteristics have been sought.
[Nle^4, D-Phe^7 ]-α-MSH was examined with respect to the duration of its ability to stimulate melanosome dispersion in vitro using the frog (Rana pipiens) skin bioassay as described in Shizume, Endocrinology 54, 553-560 (1954).

[10] = cited from earlier work; remark: listed apart in the source
[11] = s.c., 18 μg/10 g, single injection

**Q.** Which “potency / activity relative to the natural hormone” value [1] does the source give for [D-Ser^1]-α-MSH here?
**A.** diminished potency

**Q.** What about the “potency / activity relative to the natural hormone” value ([1]; listed as D-Ser^1) of the same substance?
**A.** no more active than the native hormone

**Q.** Which “potency / activity relative to the natural hormone” value [1] does the source give for [D-Tyr^2 ]-α-MSH here?
**A.** significantly less potent; also recorded: diminished potency

**Q.** With [Nle^4 ]-α-MSH as the substance, how does the “potency in dispersing amphibian melanophores relative to α-MSH” value (amphibian melanophores) read?
**A.** approximately twice as potent

**Q.** And the “potency in stimulating melanoma adenylate cyclase activity relative to α-MSH” value [2]?
**A.** approximately twice as potent

**Q.** And the “biological activity upon subsequent exposure to sodium iodide” value ([3]; after chloramine-T, further contact with sodium iodide)?
**A.** inactivated; also recorded: loses activity

**Q.** And the “biological activity after chloramine-T treatment” value ([3]; chloramine-T, oxidant used in peptide iodination)?
**A.** resistant to inactivation; also recorded: retains activity

**Q.** And the “duration of darkening effect compared with α-MSH” value (frog (Rana pipiens); [11])?
**A.** effective for only a slightly longer period than α-MSH

**Q.** What about the “loss of biological activity on incubation in serum-containing medium” value [4] of the same substance?
**A.** lost essentially all biological activity

**Q.** With [Nle^4, D-Phe^7 ]-α-MSH as the substance, how does the “duration of prolonged skin darkening” value [5] read?
**A.** about 3 days

**Q.** And the “adenylate cyclase activity after iodination” value [6]?
**A.** fully retained its activity

**Q.** And the “maximal adenylate cyclase activity compared with α-MSH and [Nle4]-α-MSH” value ([7]; FIG. 1)?
**A.** same maximal adenylate cyclase activity

**Q.** What about the “potency in stimulating adenylate cyclase relative to the native hormone (α-MSH)” value ([7]; dose-response curves of FIG. 1, Cloudman S-91 mouse melanoma) of the same substance?
**A.** 26 times

**Q.** And the “tyrosinase activity compared with α-MSH and [Nle4]-α-MSH” value [8]?
**A.** much more active

**Q.** And the “duration of melanosome dispersion in vitro” value [9]?
**A.** "prolonged" biological effect superior to α-MSH and [Nle^4 ]-α-MSH

**Q.** And the “degree of skin darkening in vivo” value (frog (Rana pipiens); s.c., 18 μg/10 g final body concentration)?
**A.** Maximum darkening

**Q.** And the “skin darkening remaining at 6 weeks” value (frog (Rana pipiens); s.c., 18 μg/10 g, 6 weeks after single injection)?
**A.** half-maximum darkening

**Q.** What about the “darkening effect of lower dose compared with higher dose” value (frog (Rana pipiens); single injection, 0.18 μg/10 g versus 18 μg/10 g final body concentration) of the same substance?
**A.** nearly as effective as the higher dose

**Q.** What about the “loss of biological activity on incubation in serum-containing medium” value [4] of the same substance?
**A.** almost totally resistant to loss of biological activity

**Q.** With α-Melanotropin [α-MSH] as the substance, how does the half-life in serum [10] read?
**A.** about 2 minutes

**Q.** What about the “biological activity upon oxidative iodination” value ([3]; iodination for radiolabelling) of the same substance?
**A.** essentially inactivated; also recorded: loses biological activity

**Q.** What about the “time by which the darkening effect was totally lost” value (frog (Rana pipiens); [11]) of the same substance?
**A.** ≤ 2 days
